According to patent US20010005714A1, “AMPHIPATHIC MOLECULES AS CHOLESTEROL AND OTHER LIPID UPTAKE INHIBITORS” (priority 1996, published 2001):

Columns and labels:
[1] = Denaturation by 10% TCA or boiling/chilling: protein remaining in supernatant; format: physicochemical
Description: Since the characterisation of sheep apo A-1 has not been reported yet, the physical characteristics of human and rabbit apo A-1 are reported for comparison (Chapman, Academic Press, Inc. San Diego, New York, Boston, London, Sydney, Tokyo. Toronto 70-143 1986)). Fr.28-PBE94 was subjected to N-terminal amino acid analysis. The first 29 amino acids of fr.28-PBE94 were 79.3% identical with rat apo A-1, 69.0% with rabbit apo A-1, 86.2% with bovine apo A-1 and 65.0% with human apo A-1. Fr.28-PBE94 cross-reacted with mouse monoclonal anti-human apo A-1 antibodies in Western blotting experiments. […] This is the floating density of high-density lipoproteins. After subjecting fr.28-PBE94 to the guanidine HCl treatment according to Nichols et al. (Nichols et al., Biochimica et Biophysica Acta 446 226-239 (1976)), fr.28-PBE94 was delipidated, showing the same behaviour as human apo A-1. […] Denatured proteins were removed by centrifugation, and protein and inhibitory activity remaining in the supernatant were determined (Table 4).

rabbit BBMV = experiment: Dose response of cholesteryl oleate uptake from egg PC SUVs by rabbit BBMV (FIG. 4B); format: biochemical; conditions: donor 0.05 mg/ml total lipid, acceptor 1.7 mg protein/ml, 20 min at 25° C., curve fits of FIG. 4B
Procedure: Small unilamellar vesicles of egg phosphatidylcholine containing 1 mol % cholesteryl oleate and a trace amount of (1,2-^3H2 (N)]-cholesteryl oleyl ether (37 Ci/mmol, from Amersham, UK) as the donor were made as described in Example 1 and BBMVs as the acceptor were prepared from rabbit small intestine (see Example 1). Donor and acceptor both dispersed in Tris/NaCl buffer (0.05 M Tris HCl pH 7.4, 0.15 M NaCl, 0.02% NaN3) and a solution of human apo A-1 or sheep HDL in the same buffer were mixed at time zero (total volume: 0.1 ml) so that the final concentrations of donor and acceptor were 0.05 mg/ml total lipid and 1.7 mg protein/ml, respectively. After incubation of the suspension of donor and acceptor in the presence of inhibitor for 20 min. at 25° C., the reaction was stopped by dilution with 2 vol. of Tris/NaCl buffer. Donor and acceptor were separated by centrifugation in the airfuge at 115,000 g for 2 min. at […]., and the radioactivities in the supernatant containing donor vesicles and in the pellet containing BBMVs were determined in a BECKMAN™ LS 7500 scintillation counter. […]
Experimental conditions were as described for FIG. 4A. The cholesterol absorption activity of BBMVs measured in the absence of inhibition was taken as 100% and the loss in activity observed in the presence of inhibitor is expressed as %. […]

[2] = taken from Chapman (1986), for comparison; cited from earlier work
[3] = system: small intestine of Sprague-Dawly rats; experiment: In vivo cholesterol absorption in the small intestine of rats; conditions: ApoA-1 added to the diet
Description: The biological relevance of the inhibitory effect observed in vitro is confirmed by an in vivo experiment showing that cholesterol absorption in the small intestine of Sprague-Dawly rats can be inhibited by the amphipathic principle by more than 80%. ApoA-1 added to the diet was used as the inhibitor, because this protein could be purified from human serum in sufficient quantity. Bases or the experimental evidence presented we ppropose that the inhibitory effect on cholesterol uptake is not restricted to particular amphipathic molecules. It is likely that the chemical nature of the amphipathic compound is of secondary importance and that the geometry and the polarity of the compound are the decisive determinants. The results presented here have important implications since amphipathic molecules belonging to any class of biological compounds such as lipids, proteins or carbohydrates might inhibit cholesterol uptake by the brush border membrane.

rabbit BBMVs = experiment: Sterol uptake inhibition using mixed bile salt micelles as donors; format: biochemical; conditions: 1.56 μM human apo A-1 or 1.98 μM fr.28-PBE94; 5 mM taurocholate, 0.6 mM oleic acid, 2 μM cholesterol; 10 min at 25° C.
Procedure: Since bile salt micelles are the most important lipid carriers in the small intestine, it is relevant to measure sterol uptake inhibition using mixed bile salt micelles as the donor. Donor micelles made of 50 mM taurocholate, 6 mM oleic acid and 20 μM radiolabelled cholesterol were prepared as follows: the lipids were mixed at these concentrations in 2:1 chloroform:methanol and the organic solvent was removed by rotary evaporation. The resulting lipid film was dried under high vacuum for at least 1 hour. The dried film was dispersed in the appropriate amount of Tris/NaCl to yield the desired micellar concentration. Acceptor rabbit BBMVs, prepared as described in Example 2, were mixed with either 1.56 μM human apo A-1 or 1.98 μM fr.28-PBE94. Donor mixed micelles were added to the acceptor/inhibitor dispersion to a final concentration of 5 mM taurocholate, 0.6 mM oleic acid and 2 μM radiolabelled cholesterol and the mixture incubated for 10 min at 25° C. […] Radioactivities in both pellet and supernatant were measured and results evaluated as described in Example 2; incubation with apo A-1 yielded 12% of the inhibitory activity measured at the same inhibitor concentration using SUVs as donor, and incubation with fr.28-PBE94 yielded 23% of the inhibitory activity measured at the same inhibitor concentration using SUVs as donor.

[4] = system: brush border membrane vesicles (BBMV); experiment: IC50 of cholesteryl oleate uptake at the brush border membrane (Example 6); format: biochemical, rabbit; conditions: donor 0.1 mg total lipid/ml, acceptor 2 mg protein/ml; 20 min at 25° C.
Procedure: An appropriate amount of inhibitor dissolved in 84.5 μl buffer (0.05 M Tris pH 7.4, 0.15 M NaCl) is mixed in an Eppendorf tube at time zero with 5 μl of a dispersion of donor and 10.5 μl of a dispersion of acceptor (i.e. brush border membrane vesicles (BBMV)) in the same buffer. The final concentration of the donor vesicles was 0.1 mg total lipid/ml, that of the acceptor was 2 mg protein/ml. The resulting mixture was incubated for 20 min at 25° C., and the reaction was stopped by adding 60 μl of the incubation medium to 120 μl ice-cold bufferin an airfuge tube. The diluted dispersion was immediately centrifuiaed in the airfuge at […] for 2 min. at 4° C. to separate donor vesicles from BBMV. Two 60 μl aliquots of the donor (=supernatant) were counted in a Beckman LS-7500 liquid scintillating counter to determine the radioactivity remaining in tbe donor.
Small unilamellar egg phosphatidycholine (PC) vesicles containing 1 mol % of cholesterol oleate and a trace amount of ^3H-cholesterol oleyl ether were made by dissolving the appropriate amounts of the lipids in CHCl3/CH3OH, (2:1, by vol.), taking the solution to dryness on a rotary evaporator and drying the residue in vacuo. The dried lipid film was dispersed in the appropriate volume of buffer by hand-shaking. The lipid dispersion was subjected to tip sonication as described in Brunner et al, J. Biol. Chem. 253 7538-7546 (1978). The resulting donor dispersion in buffer was centrifuged in the airfuge at 100000 g for 2 min at […]. Only the top 80% of the donor dispersion after centrifugation was used in the lipid uptake experiment.
BBMV were prepared from frozen rabbit small intestine according to Hauser et al (Biochim. Biophys. Acta 602 567-577 (1980)). Prior to use in the uptake experiment determining IC50 values the BBMV were washed to remove any free protein liberated from the BBM. To this end the BBMV dispersion was diluted with buffer 1:1 in an airfuge tube, and the diluted dispersion was centrifuged in the airfuga at 100000 g for 2 min at […]. The supernatant was is carefully decanted, the pellet was resuspended in buffer to the original volume of the BBMV dispersion, and the dispersion was homogenized. […]

human apo A-1: human apolipoprotein A-1, prepared from human HDL by delipidation and ion exchange chromatography
protein (%) remaining in the supernatant ([1]; after TCA precipitation (10% TCA)): 0%
protein (%) remaining in the supernatant ([1]; after boiling/chilling (4 cycles, 5 min each)): 27%
IC-50 (rabbit BBMV): 25 µg/mL
isoelectric point [2]: 5.52
inhibition of cholesterol absorption in the small intestine [3]: more than 80%
inhibitory activity with mixed bile salt micelles as donor, as % of that measured at the same inhibitor concentration using SUVs as donor (rabbit BBMVs): 12%
IC50 [4]: 0.5 ± 0.1 µM
IC50 (μg/mL) of cholesteryl oleate uptake at the brush border membrane [4]: 14 ± 3 µg/mL
